assay: method code SF, from DOI: 10.1016/j.ejps.2005.05.001, PMID: 15955679; conditions: not given

logP	Compound
1.76	O=c1[nH]c2c(cc1S(=O)(=O)c1ccccc1)CCCC2
2.1	O=C(c1ccccc1)c1cc2c([nH]c1=O)CCCC2
1.74	CC(=O)c1ccc(-c2ccccc2)[nH]c1=O

same assay, conditions: pH 7.4

logD	Compound
-0.3	CC(=O)c1ccc(=O)[nH]c1C

assay: not given; conditions: not given

logP	Compound
0.3	N#Cc1ccc(-c2ccccn2)[nH]c1=O
0.05	N#Cc1ccc(-c2cccnc2)[nH]c1=O
0.65	CCOC(=O)c1cc(C#N)c(=O)[nH]c1C
-0.04	CC(=O)c1cc(C(=O)O)c(=O)[nH]c1C
1.78	Cc1[nH]c(=O)c(C#N)cc1C(=O)OCC(C)C
-0.13	Cc1ccc(C#N)c(=O)[nH]1
-0.09	COC(=O)c1cc(C(C)=O)c(C)[nH]c1=O
0.02	N#Cc1ccc(-c2ccncc2)[nH]c1=O
0.15	Cc1[nH]c(=O)c(C#N)cc1C(=O)O

Reference: the SangsterLogP compilation
